Source: patent US20230202997A1, “CHROMANOL, QUINONE OR HYDROQUINONE COMPOUNDS FOR TREATMENT OF SEPSIS” (Sulfateq B.V., priority 2020, published 2023)

Legend:
IL-1β mRNA expression [1] = assay: Inhibition of LPS-induced IL-1β mRNA expression in HUVEC; assay type: cell-based, Human; conditions: 10 μM for 30 min, then LPS 24 hours
Procedure: (§1) Human Umbilical Cord Endothelial Cells (HUVEC, Lonza CC-2519) were maintained on 1% gelatin-coated culture flasks in RPMI1640 medium containing 20% fetal bovine serum, 2 mM Glutamine (Sigma-Aldrich), 1% Penicillin-Streptomycin solution (Sigma-Aldrich) and 50 μg/ml Bovine Pituitary Extract (Invitrogen). HUVEC were passaged by trypsinization when the cultures reach a confluency of 70%. For all experiments, HUVEC were seeded at 0.6·10^5 cells/cm^2 and allowed to adhere for 24 hours.
(§2) HUVEC and NRK52E cells were pre-incubated with SUL compounds (10 μM) for 30 min and subsequently exposed to LPS for 24 hours under standard culture conditions. Cells were lysed in triZOL reagens (Invitrogen) and total RNA isolated according to manufacturers' instruction. 1 μg total RNA per sample was reverse transcribed using the FirstAid Reverse Transcription Kit (ThermoFisher). Copy-DNA equivalents of 5 ng total RNA were amplified on a ViiA7 Real-time PCR system (ThermoFisher, Waltham, Mass.) using iTaq Universal SYBR Green Supermix (Bio-Rad, Hercules, Calif.) and primers specific for tumor necrosis factor alpha, interleukin 1 beta, interleukin-6 and beta actin as loading control. Amplification was performed for 40 cycles of 95° C. for 30 s, 60° C. for 1 min. Relative mRNA expression was calculated as 2^−(Cq^gene^−Cq^reference^) and normalized to unstimulated control cells (100% inhibition) and vehicle-treated and LPS exposed cells (0% inhibition). The following primers were used: […]

IL-6 mRNA expression [2] = assay: Inhibition of LPS-induced IL-6 mRNA expression in NRK52E; assay type: cell-based, Rat; conditions: 10 μM for 30 min, then LPS 24 hours
Procedure: (§3) Rat kidney epithelial cells (ATCC #CRL-1571) were maintained in DMEM medium containing 10% fetal bovine serum, and 1% Penicillin-Streptomycin solution (Sigma-Aldrich). NRK52E cells were passaged by trypsinization when the cultures reached a confluency of 70%. For all experiments, NRK52E cells were seeded at 0.6·10^5 cells/cm^2 and allowed to adhere for 24 hours.
as §2

IL-6 mRNA expression [3] = assay: Inhibition of LPS-induced IL-6 mRNA expression in HUVEC; assay type: cell-based, Human; conditions: 10 μM for 30 min, then LPS 24 hours
Procedure: as §1, §2

TNFα mRNA expression [4] = assay: Inhibition of LPS-induced TNFα mRNA expression in HUVEC; assay type: cell-based, Human; conditions: 10 μM for 30 min, then LPS 24 hours
Procedure: as §1, §2

[5] = test system: sepsis induction in Drosophila melanogaster (Staphylococcus aureus); assay: S. aureus sepsis in flies, survival and negative geotaxis; assay type: in vivo; conditions: flies with S. aureus sepsis
Procedure: W1118 flies were bred and housed at 25° C. with a 12 h:12 h light/dark-cycle. Flies were kept in vials containing approximately 5 mL of standard yeast-cornmeal medium. Flies kept as a stock were flipped to fresh vials weekly. The used yeast-cornmeal medium was prepared to the instructions of Stocker and Gallant's ‘Drosophila Methods and Protocols’ and consisted of 100 grams yeast, 75 grams glucose, 8 grams agar, 55 grams cornmeal, and 10 grams wheat flour per litre of water. After boiling, phosphoric acid and propionic acid were added to the mixture to prevent fungal growth.
Staphylococcus aureus (S. aureus) was aerobically cultured overnight in 2.5% tryptic soy broth (TSB) at 37° C. with continuous rotation (200 rounds per minute), from an S. aureus glycerol stock kept at −80° C. For each experiment, a fresh culture was prepared one day prior to the experiment. For bacterial infection, optical density (OD) was measured the following day at 600 nm. Clean TSB was used as OD=0.00 and the bacterial culture was diluted to OD=2.20 with PBS. Next, 1.0 mL of the bacterial culture (OD=2.20) was centrifuged at 14,000 g for 1 minute, the supernatant was discarded, and the bacterial pellet resuspended in 1.0 mL PBS. Serial dilutions (5× and 25× diluted in PBS with optical densities of approximately 1.05 and 0.25, respectively) were used in the appropriate experiments. […]

TNFα mRNA expression [6] = assay: Inhibition of LPS-induced TNFα mRNA expression in NRK52E; assay type: cell-based, Rat; conditions: 10 μM for 30 min, then LPS 24 hours
Procedure: as §3, §2

[7] = test system: cytoplasmic oxidative stress in HUVEC; assay: LPS-induced cellular superoxide in HUVEC (DHE); assay type: cell-based, Human; conditions: 10 μM for 30 min, LPS 100 ng/ml 24 hours
Procedure: as §1
(§4) The production of cellular and mitochondrial oxidative stress was measured using fluorescent probes for cellular and mitochondrial superoxide, i.e. dihydroethidium (DHE) and MitoSox (ThermoFisher), respectively. HUVEC were incubated with BN-80933, SUL-138 or SUL-150 (all 10 μM) for 30 min. Next, HUVEC were exposed to LPS (100 ng/ml) for an additional 24 hours. In the final hour of incubation, 2.5 μM of DHE or MitoSox was applied to each sample. HUVEC were washed in PBS and fixed in 4% paraformaldehyde at room temperature for 15 min. Nuclear staining was performed by 5 μM […] (DAPI) and fluorescence intensity of the samples was recorded in a CLARIOStar Plus plate reader (BMG Labtech) equipped with the appropriate filter sets. Fluorescence recordings for DHE and MitoSox were corrected for DAPI fluorescence. All experiments were performed in quadruplicate.

IL-6 mRNA expression [8] = assay: Endothelial inflammatory activation after endotoxin, IL-6 mRNA (Example 5); assay type: cell-based, Human; conditions: HUVEC; 10 μM for 30 min
Procedure: as §1
(§5) HUVEC cells were lysed in triZOL reagens (Invitrogen) and total RNA isolated according to manufacturers' instruction. 1 μg total RNA per sample was reverse transcribed using the FirstAid Reverse Transcription Kit (ThermoFisher). Copy-DNA equivalents of 5 ng total RNA were amplified on a ViiA7 Real-time PCR system (ThermoFisher, Waltham, Mass.) using iTaq Universal SYBR Green Supermix (Bio-Rad, Hercules, Calif.) and primers specific for tumor necrosis factor alpha (TNFα; sense 5′-[…]-3′, antisense 5′-[…]-3′), interleukin 1 beta (IL-1β; sense 5′-[…]-3′, antisense 5′-[…]-3′), interleukin-6 (IL-6; sense 5′-[…]-3′, antisense 5′-[…]-3′) and beta actin (ACTB; sense 5′-[…]-3′, antisense 5′-[…]-3′) as loading control. Amplification was performed for 40 cycles of 95° C. for 30 s, 60° C. for 1 min. Relative mRNA expression was calculated according to the δδCt-method.

NO production in HUVEC = assay: Endothelial NO production (nitrate in conditioned medium), basal and after LPS; assay type: cell-based, Human; conditions: 10 μM pre-treatment, LPS 100 ng/ml for 24 hours
Procedure: as §1
Cellular production of NO was approximated by measuring nitrate concentrations in culture media using the Measure-IT™ High-Sensitivity Nitrite Assay Kit (#M36051, ThermoFisher) according to manufacturer's instructions. […] Therefore, nitrate concentrations in conditioned media are a good approximate to assess cellular NO production. 50 μl conditioned medium derived from a single 96-wells plate well was used per assay and normalized against protein concentration. All experiments were performed in quadruplicate.
Endotoxins suppress endothelial NO production by limiting the activity of eNOS. HUVEC were pre-treated with vehicle (DMSO), BN-80933, SUL-138, or SUL-150 or (all 10 μM) prior to endotoxin (LPS 100 ng/ml) exposure for 24 hours. The nitrate levels in the conditioned medium from endothelial cells exposed to LPS averaged at 160 pmol/mg protein (˜33% reduction versus non LPS exposed HUVEC, p=0.002), which was lower than basal control levels. BN-80933 further suppressed the nitrate levels in the conditioned medium (FIG. 7A) to an average of 90 pmol/mg protein (p=0.008).

[9] = test system: mitochondrial oxidative stress in HUVEC; assay: LPS-induced mitochondrial superoxide in HUVEC (MitoSox); assay type: cell-based, Human; conditions: 10 μM for 30 min, LPS 100 ng/ml 24 hours
Procedure: as §1, §4

HUVEC = assay: Cell viability after hypothermia-rewarming stress (Neutral Red); assay type: cell-based, Human; conditions: 10 μM for 1 hour, 4° C. for 24 hours followed by 37° C. for 3 hours
Procedure: as §1
HUVEC were pre-treated with BN-80933, SUL-138 or SUL-150 (all 10 μM) for 1 hour in a humidified incubator at 37° C. Following pre-treatment, HUVEC were placed in a cold room (2-8° C.) for 24 hours and subsequently placed back at 37° C. for a 3 hour rewarming period. After 1 hour of rewarming, cell culture medium was replaced by prewarmed and filtered 0.4 mg/mL Neutral Red (#N463 8, Sigma-Aldrich) in culture medium. After the remaining 2 hour rewarming period, HUVEC were washed with PBS and NRU was solubilized in 100 μL resorption solution (50% ethanol, 1% ascetic acid in dH2O). The absorbance was measured at a wavelength of 550 nm on a BioTek ELx808 plate reader. The recorded OD550 nm values were normalized to control samples that were maintained at 37° C. at all times, which were assumed to be 100% viable.

IL-1β mRNA expression [10] = assay: Endothelial inflammatory activation after endotoxin, IL-1β mRNA (Example 5); assay type: cell-based, Human; conditions: HUVEC; 10 μM for 30 min
Procedure: as §1, §5

[11] = test system: NO production in RAW264.7 macrophages; assay: Macrophage NO production (nitrate in conditioned medium), basal and after LPS; assay type: cell-based, Mouse
Procedure: Mouse macrophage RAW264.7 cells (ATCC #TIB-71) were maintained in DMEM medium containing 10% fetal bovine serum, and 1% Penicillin-Streptomycin solution (Sigma-Aldrich). […] For all experiments, RAW264.7 cells were seeded at 0.5·10^5 cells/cm^2 and allowed to adhere for 24 hours. Cellular production of NO was approximated by measuring nitrate concentrations in culture media using the Measure-IT™ High-Sensitivity Nitrite Assay Kit (#M36051, ThermoFisher) according to manufacturer's instructions. […] Therefore, nitrate concentrations in conditioned media are a good approximate to assess cellular NO production. 50 μl conditioned medium derived from a single 96-wells plate well was used per assay and normalized against protein concentration. All experiments were performed in quadruplicate. LPS induces macrophage NO production by activating iNOS. RAW264.7 macrophages were pre-treated with vehicle (DMSO), BN-80933, SUL-138, or SUL-150 or (all 10 μM) prior to endotoxin (LPS 100 ng/ml) exposure for 24 hours. The nitrate levels in the conditioned medium from LPS exposed RAW264.7 macrophages averaged at 83 pmol/mg protein (˜16-fold increase versus non-exposed RAW264.7 cells, p=0.001).

TNFα mRNA expression [12] = assay: Endothelial inflammatory activation after endotoxin, TNFα mRNA (Example 5); assay type: cell-based, Human; conditions: HUVEC; 10 μM for 30 min
Procedure: as §1, §5

Row | SMILES | inhibition of LPS-induced mRNA expression of IL-1β (IL-1β mRNA expression [1]) [%] | inhibition of LPS-induced mRNA expression of IL-6 (IL-6 mRNA expression [2]) [%] | inhibition of LPS-induced mRNA expression of IL-6 (IL-6 mRNA expression [3]) [%] | inhibition of LPS-induced mRNA expression of TNFα (TNFα mRNA expression [4]) [%] | Geotaxis ([5]; 3 mM SUL-151, 24 hr and 48 hr after induction) | Survival after 24 hr ([5]; 3 mM SUL-151 intrathoracic injection with the bacteria) [%] | inhibition of LPS-induced mRNA expression of TNFα (TNFα mRNA expression [6]) [%] | LPS-induced cytoplasmic oxidative stress (DHE) [7] | LPS-induced mRNA expression of IL-6 (IL-6 mRNA expression [8]) | nitrate levels in the conditioned medium after LPS (NO production in HUVEC) | LPS-induced mitochondrial oxidative stress (MitoSox) [9] | reduction in cell viability versus normothermic control cells (HUVEC) [%] | LPS-induced mRNA expression of IL-1β (IL-1β mRNA expression [10]) | LPS-induced increase in extracellular nitrate level ([11]; 10 μM pre-treatment, LPS 100 ng/ml for 24 hours) | basal production of extracellular nitrate ([11]; no LPS, 10 μM) | LPS-induced mRNA expression of TNFα (TNFα mRNA expression [12])
1 | Cc1c(C)c2c(c(C)c1O)CC[C@@](C)(C(=O)N1CCNCC1)O2 [SUL-151, (S)-(6-hydroxy-2,5,7,8-tetramethylchroman-2-yl)(piperazin-1-yl)methanone] | 76.7 ± 1.2 | 83.1 ± 8.3 | 65.4 ± 4.6 | 72.5 ± 3.2 | improved both at 24 hr and 48 hr | 80 | 72.1 ± 14.5 |  |  |  |  |  |  |  |  | 
2 | Cc1c(C)c2c(c(C)c1O)CC[C@](C)(C(=O)N1CCNCC1)O2 [SUL-150, (R)-(6-hydroxy-2,5,7,8-tetramethylchroman-2-yl)(piperazin-1-yl)methanone] | 78.9 ± 6.0 |  | 69.3 ± 3.9 | 79.8 ± 4.1 |  |  |  | mitigates the induction of cytoplasmic oxidative stress | precluded the LPS-induced increase in IL-1β and IL-6 | mitigated the LPS-induced reduction in nitrate levels and their levels did not change from basal nitrate level | precluded the LPS-induced increase in mitochondrial oxidative stress | ~15 | precluded the LPS-induced increase in IL-1β and IL-6 | Neither SUL-138 nor SUL-150 strongly suppressed the LPS-induced increase in nitrate production | Neither BN-80933, SUL-138, nor SUL-150 affected the basal production of extracellular nitrate | precludes the induction of mRNA expression of the pro-inflammatory cytokine TNFα
